Here are results for 2 compounds from US6562791B1, “Glucopyranoside, process for isolation thereof, pharmaceutical composition containing same and use thereof” (Council of Scientific and Industrial Research, priority 2002, dated 2003).

The test concerns 18 hour fasted Wistar rats. Put plainly: hypoglycaemic activity in 18 hour fasted Wistar rats. The test is classed as in vivo. The settings on record: for mean fall (blood glucose): compound at 15 mg/kg p.o., chlorpropamide positive control, dose not given. As to the method: The compound was evaluated for hypoglycaemic activity in 18 hour fasted Wistar rats. […] The mean fall recorded was 24 mg/100 ml blood, from an initial mean of 91 to mean of 67 mg/100 ml blood.

As for `CCCNC(=O)NS(=O)(=O)c1ccc(Cl)cc1` [chlorpropamide, reference compound], the “mean fall (blood glucose)” value stood at 18 mg/100 ml blood.

As for `OC[C@H]1O[C@@H](c2c(O)ccc3cc(Cc4ccc(O)cc4)oc23)[C@H](O)[C@@H](O)[C@@H]1O` [formula 1, 6-hydroxy-2-p-hydroxybenzylbenzofuran-7-C-β-D-glucopyranoside], the “mean fall (blood glucose)” value was 24 mg/100 ml blood. The hypoglycaemic effect result (15 mg/kg p.o.) was “hypoglycaemic effect was recorded in all the treated rats”. The “mean blood level after treatment” value (15 mg/kg p.o., after treatment) is 67 mg/100 ml blood. The “initial mean blood level” value (initial value of the treated group) worked out at 91 mg/100 ml blood.
